Measured values: patent US8394816B2, “Methods of using [3.2.0] heterocyclic compounds and analogs thereof in treating Waldenstrom's Macroglobulinemia” (priority 2007, dated 2013)

What was measured:
[1] = Stability in solution; type: physicochemical; conditions: converted to compound VI-1B, mixture 7:3
Method: The compound of Formula I-16 (15 mg, 0.048 mmol) was dissolved in 1:1 ratio of ACN/DMSO (8 ml) in a scintillation vial (20 ml) to which triethylamine (40 μl, 0.29 mmol), Glutathione (44.2 mg, 0.144 mmol) and a magnetic stir bar were added. The reaction mixture was stirred at room temperature for about 3 hours. The solvent was evaporated from the reaction mixture to yield the compound of Formula I-48, which was purified by reversed phase HPLC using Ace 5u C18 column (150 mm×22 mm ID) with a solvent gradient of 10% to 70% H2O/Acetonitrile over 15 min, 70 to 100% Acetonitrile over 5 min, holding at 100% Acetonitrile for 4 min, at a flow rate of 14.5 ml/min. Diode array detector was used to monitor the purification process. Compound I-48 (10 mg) eluted as a pure compound at 8.255 min. Compound I-48: UV (Acetonitrile/H2O) λmax 235 (sh) nm; ESMS m/z 621.0 (M+H)^+. […] Compound VI-1B: UV (Acetonitrile/H2O) λmax 235 (sh) nm; ESMS, m/z 585.2 (M+H)^+.

[2] = test system: WM-WSU, MEC-1, Namalwa; experiment: MTT cytotoxicity assay, other IgM-secreting cell lines; type: cell-based; conditions: Homo sapiens, MEC1; 48 hours
[3] = test system: primary CD19+ cells isolated from three patients with WM; experiment: tissue or blood; conditions: Homo sapiens, read-out: IC50, cytotoxicity in primary CD19+ cells (MTT)
Method: FIG. 1D is a graph showing freshly isolated bone marrow CD19^+ tumor cells from 3 patients with WM were cultured with salinosporamide A (2.5-40 nM [E]; 2.5-80 nM [F]). Cytotoxicity was assessed by MTT assay.

[4] = test system: BCWM.1 cells; experiment: IL-6-induced proliferation, thymidine uptake; type: cell-based; conditions: salinosporamide A 2.5-20 nM, bortezomib 10 nM, IL-6 25 ng/mL
Method: Proliferation was assessed by thymidine uptake assay.
(§1) The effect of the two proteasome inhibitors on cytotoxicity of WM cells in the presence of IL-6 was also investigated. […] Whether the two proteasome inhibitors, used as single agent or in combination, could also target non-malignant hematopoietic cells was investigated.

[5] = test system: BCWM.1 cells; experiment: cells
Method: (§2) FIG. 1A is a graph showing thymidine uptake assay and cytotoxicity assessed by MTT. BCWM.1 cells were cultured with salinosporamide A (2.5-40 nM) for 48 hours.
FIG. 2A is a graph showing BCWM.1 cells cultured with salinosporamide A (2.5, 5 and 10 nM) for 48 hours, in the presence or absence of bortezomib (5 and 10 nM). Cytotoxicity was assessed by MTT assay.
All experiments were repeated in triplicate.

[6] = test system: caspase-like (C-L) activity of the 20S proteasome; experiment: 20S proteasome caspase-like activity in treated cells; type: cell-based; conditions: each agent 10 nM, 4 hours
[7] = test system: WM-WSU, MEC-1, Namalwa; experiment: [3H]-thymidine uptake assay, IgM-secreting cell lines; type: cell-based; conditions: Homo sapiens, MEC1, 48 hours, read-out: IC50, [3H]-thymidine uptake, all cell lines tested
Method: FIG. 1B is a graph showing thymidine uptake assay.
WM and IgM-secreting cell lines were cultured for 48 hours in the presence of salinosporamide A (Formula I-16) (2.5-40 nM). […]

[8] = test system: BCWM.1 cells adherent to BMSCs; experiment: [3H]-TdR uptake in co-culture with BMSCs; type: cell-based; conditions: salinosporamide A 2.5-20 nM, bortezomib 10 nM, 48 hours
Method: Whether salinosporamide A, alone or in combination with bortezomib, inhibits WM cells growth in the context of the BM milieu was investigated. BCWM.1 cells were cultured with salinosporamide A (2.5-20 nM) and/or bortezomib (10 nM) in the presence or absence of BMSCs, for 48 hours.

[9] = test system: chymotrypsin-like (CT-L) activity of the 20S proteasome; experiment: 20S proteasome chymotrypsin-like activity in treated cells; conditions: 10 nM, 4 hours
[10] = test system: Akt; experiment: In vitro Akt kinase assay; type: cell-based; conditions: each agent 10 nM
Source text: FIG. 4B is a picture showing In vitro Akt kinase assay. […] Whole cell lysates were immunoprecipitated with anti-Akt antibody. Then the immunoprecipitate was washed and subjected to in vitro kinase assay according to manufacturer's protocol. Western blotting used anti-p-GSK3α/β and anti-Akt antibodies.

[11] = test system: BMSCs
[12] = test system: BCWM.1 cells; experiment: Transwell migration assay towards SDF-1; type: cell-based; conditions: each agent 10 nM, 4 hours; SDF-1 30 nM
Source text: Cells were then subjected to migration as previously described in Alsayed Y, Ngo H, Runnels J., et al. Mechanisms of regulation of CXCR4/SDF-1 (CXCL12)-dependent migration and homing in multiple myeloma. Blood.

[13] = test system: Akt knockdown BCWM.1 cell line; experiment: MTT cytotoxicity in Akt knockdown cell line; conditions: 2.5-20 nM, 48 hours
Method: BCWM.1 transfected cells or BCWM.1 control cells were treated with salinosporamide A (2.5-20 nM) for 48 hours. Cytotoxicity was assessed by MTT assay.

[14] = test system: trypsin-like (T-L) activity of the 20S proteasome; experiment: 20S proteasome trypsin-like activity in treated cells; conditions: 10 nM, 4 hours
[15] = test system: PI3K/Akt signaling pathway in BCWM.1 cells; experiment: Western blotting of PI3K/Akt signaling pathway; conditions: 2.5-20 nM, 6 hours
Source text: Whole cell lysate were subjected to Western blotting using anti-p-Akt, -Akt, -p-GSK3α/β, -p-S6R, -p-ERK, and -α-tubulin antibodies.

[16] = test system: PBMCs from 3 healthy volunteers
[17] = test system: BM hematopoietic progenitor cells; experiment: Colony-forming cell assay; conditions: salinosporamide A 10 nM, 20 nM; bortezomib 10 nM; day 14
Source text: FIG. 5D is a graph showing colony-forming cell assay. […] All experiments have been done in triplicate.
as §1

[18] = test system: Akt and STAT-3 phosphorylation; experiment: IL-6-triggered Akt and STAT-3 phosphorylation, western blotting; type: cell-based; conditions: each agent 10 nM, 8 hours; IL-6 25 ng/mL 10 minutes
Method: Cells were then stimulated with IL-6 (25 ng/mL) for 10 minutes.
as §1

[19] = test system: p65 phosphorylation and p50NF-κB expression; experiment: Fibronectin-induced NF-κB activity, western blotting of nuclear extracts; conditions: each agent 10 nM, 4 hours
Source text: Nuclear extracts were subjected to western blotting using anti-p-p65, -p50, and -nucleolin antibodies.

[20] = test system: NF-κBp65; experiment: NF-κBp65 DNA binding activity (Active Motif assay), TNF-α stimulated; type: cell-based; conditions: each agent 10 nM, 4 hours; TNF-α 10 ng/mL last 20 minutes
Method: FIG. 3A is a graph showing BCWM.1 cells cultured with either salinosporamide A (10 nM), bortezomib (10 nM), or the combination for 4 hours, then human TNF-α (10 ng/mL) was added for the last 20 minutes. NF-κBp65 transcription factor-binding to its consensus sequence on the plate-bound oligonucleotide was studied from nuclear extract. Wild type and mutant are wild type and mutated consensus competitor oligonucleotides, respectively. All results represent means (±sd) of triplicate experiments.
The effect of salinosporamide A either alone or in combination with bortezomib on the NF-κBp65 DNA binding activity was investigated, studying nuclear extracts from treated cells using the Active Motif assay. […] Phospho-p65 translocation from the cytoplasmic compartment to the nucleus was inhibited by the combination of bortezomib and salinosporamide A, resulting in a significant increase in p-p65 expression in the cytoplasmic compartment as shown by immunofluorescence (FIG. 3D).

[21] = test system: BCWM.1 cells; experiment: Apo2.7 staining apoptosis, flow cytometry; type: cell-based; conditions: 48 hours, untreated 5%
Method: FIG. 1E is a graph showing BCWM. 1 cultured with salinosporamide A for 48 hours at doses that range from 2 to 30 nM and the percentage of cells undergoing apoptosis was studied by Apo2.7 staining.
The molecular mechanisms whereby salinosporamide A induces cytotoxicity in WM cells was examined.

[22] = test system: BCWM.1 cells; type: cell-based; conditions: for caspases-3, 8 and 9 cleavage: each agent 10 nM
Source text: To further dissect whether apoptosis is mediated through the intrinsic or extrinsic pathways, the effect of salinosporamide A, bortezomib and the combination on caspases-3, 8 and 9 was investigated.

[23] = test system: BCWM.1 cells; experiment: [3H]-thymidine uptake proliferation assay; type: cell-based; conditions: BCWM1; BCWM.1, 48 hours; read-out: IC50, inhibition of proliferation ([3H]-thymidine uptake)
Method: as §2
WM and IgM-secreting cell lines were cultured for 48 hours in the presence of salinosporamide A (Formula I-16) (2.5-40 nM).

[24] = test system: BCWM.1 cells homing to the bone marrow; type: in vivo, BALB/c mice; conditions: single agents, cells pretreated; data not shown
Method: FIG. 6D is a graph showing in vivo flow cytometry. DiI-labeled treated cells and DiR-labeled untreated cells were injected in the tail vein of 2 BALB/c mice. Cells were counted every 5 min for 45 minutes as described in Material and Methods.
DI-labeled BCWM.1 cells treated with salinosporamide A (10 nM, 4 hours), alone or in combination with bortezomib (5 nM), or DiR-labeled untreated BCWM.1 cells used as control were injected in the tail vein of BALB/c mice, followed by in vivo flow cytometry every 5 minutes for 45 minutes after injection.

[25] = test system: WM; conditions: single agent, phase I trials; cited from earlier work

## C[C@]1(O)[C@@H](CCCl)C(=O)N[C@]1(C(=O)SCC(NC(=O)CCC(N)C(=O)O)C(=O)NCC(=O)O)[C@@H](O)[C@@H]1C=CCCC1 (some centres unmarked) [Compound I-48]
[1]
  stability in solution: unstable in solution

## C[C@@]12OC(=O)[C@]1([C@@H](O)[C@@H]1C=CCCC1)NC(=O)[C@@H]2CCCl [salinosporamide A]
[2]
  IC50: 30 to 40 nM
[3]
  IC50: 20 to 30 nM
[4]
  IL-6-induced proliferation of BCWM.1 cells: inhibited IL-6-induced proliferation of BCWM.1 cells
[5]; BCWM1, 48 h, read-out: IC50, decreased survival (MTT)
  IC50: 18 nM
[5]; human
  cytotoxicity, % of BCWM.1 cells (MTT): 12.4%
[6]
  reduction of the C-L activity: 34.3%
[7]
  IC50: 20 to 30 nM
[8]
  BMSC-triggered increase in proliferation of BCWM.1 cells: inhibited by salinosporamide A in a dose-dependent manner
[9]
  reduction of the CT-L activity: 81%
[10]
  Akt kinase activity (phosphorylation of GSK3α/β fusion protein): decreased phosphorylation of GSK3α/β fusion protein
[11]
  viability of BMSCs (MTT): not affected
[12]
  WM cells migration towards SDF-1: slightly inhibited
[13]
  cytotoxic effect in the absence of Akt: abrogated
[14]
  reduction of the T-L activity: 38.7%
[15]
  phosphorylation of Akt (ser473), GSK3α/β and ribosomal protein S6: inhibited phosphorylation of Akt (ser473), and downstream GSK3α/β and ribosomal protein S6 in a dose dependent manner
  phosphorylation of ERK1/2 (thr202/tyr204): no activity on the phosphorylation of the MAP kinase ERK1/2
[16]
  cytotoxic effect on PBMCs: no cytotoxic effect
[17]
  growth of BM hematopoietic progenitor cells (colony formation): did not affect the growth of BM hematopoietic progenitor cells
[18]
  IL-6-triggered Akt and STAT-3 phosphorylation: inhibited IL-6-triggered Akt and STAT-3 phosphorylation
[19]
  FN-induced p65 phosphorylation and p50NF-κB expression: inhibited
[20]
  TNF-α induced NF-κB recruitment to the nucleus (NF-κBp65 DNA binding): inhibited by salinosporamide A more than bortezomib
[21]; 5 nM
  percentage of apoptotic BCWM.1 cells: 21.2%
[21]; 20 nM
  percentage of apoptotic BCWM.1 cells: 40%
[22]; 2.5-20 nM, 12 hours
  Mcl-1 expression: induced down-modulation of the anti-apoptotic protein Mcl-1
  XIAP expression: down-regulated the expression of XIAP in a dose-dependent manner
  caspase-8 and PARP cleavage: induced caspase-8 and PARP cleavage in a dose-dependent manner
[22]; 2.5-20 nM, data not shown
  caspase-3 and -9: without affecting caspase-3 and -9
[22]; 12 hours
  caspases-3, 8 and 9 cleavage: induced mild capsase-8 cleavage without affecting caspase-3 and 9 cleavage
[23]
  IC50: 15 nM
[24]
  homing of WM cells to the bone marrow: Neither salinosporamide A nor bortezomib used as single agents significantly inhibited homing

## CC(C)C[C@H](NC(=O)[C@H](Cc1ccccc1)NC(=O)c1cnccn1)B(O)O [bortezomib, Bortezomib, reference compound]
[4]
  IL-6-induced proliferation of BCWM.1 cells: inhibited IL-6-induced proliferation of BCWM.1 cells
[6]
  reduction of the C-L activity: 29%
[25]
  responses in WM: 40-80%
[9]
  reduction of the CT-L activity: 69%
[10]
  Akt kinase activity (phosphorylation of GSK3α/β fusion protein): did not modulate Akt phosphorylation
[14]
  reduction of the T-L activity: 5%
[18]
  IL-6-triggered Akt and STAT-3 phosphorylation: inhibited IL-6-triggered Akt and STAT-3 phosphorylation
[19]
  FN-induced p65 phosphorylation and p50NF-κB expression: inhibited
[22]; 12 hours
  caspases-3, 8 and 9 cleavage: induced-9 and -3 cleavage
[24]
  homing of WM cells to the bone marrow: Neither salinosporamide A nor bortezomib used as single agents significantly inhibited homing
